Drawing on ChEMBL document CHEMBL3507680, “University of Dundee, Gates Library screen for HepG2 cell viability”, this text covers cytotoxicity for 99 molecules.

The data set is described as follows: Human HepG2 cell viability assay in 384 well format. In kind it is toxicity, cell-based. Also on record: dose 125 nL, time 70.5 hour; cytotoxicity at 70.5 h: concentration not given beside the values. To be noted: HepG2 cells, read-out: Inhibition.
`O=C(c1ccco1)N1CCc2onc(CN3CCCC3)c2C1`: the cytotoxicity at 70.5 h was found to be 7.25%. `CC(=O)N1CCCC2(CCN(Cc3ccc(Cl)c(F)c3)C2)C1` (centres undefined): the cytotoxicity at 70.5 h is -3.79%. Take `COCCNC(=O)c1nc2c(s1)CCCN2Cc1ccccc1`: the cytotoxicity at 70.5 h was -6.6%. As for `COc1cc(N2CC[C@@H]3O[C@@H](c4ccncn4)C[C@H]3C2)ncn1`, the cytotoxicity at 70.5 h is 7.96%. The value for `COc1cc(N2CC[C@@H]3O[C@@H](c4ccnc(C)n4)C[C@H]3C2)ncn1` was -4.55%. As for `CN(C)C(=O)NCc1ncn2c1CN(S(C)(=O)=O)CCC2`, the cytotoxicity at 70.5 h is -4.56%.

Regarding `CCOCC1c2c(ncn2C(C)C)CCN1C(=O)C1CC1` (centres undefined), the cytotoxicity at 70.5 h was -3.05%. For `CCS(=O)(=O)N1CCC2(CN(C(=O)c3cn(C)cn3)C2)C1`, the cytotoxicity at 70.5 h was 8.36%.

Consider `Cc1ccc(C(=O)N2C[C@@H]3CN(c4ncccn4)C[C@@H]3C2)cn1`, for which the cytotoxicity at 70.5 h is -9.68%. Consider `CCCS(=O)(=O)N1CCOC2(CCCN(c3ncc(F)cn3)C2)C1` (centres undefined), for which the cytotoxicity at 70.5 h is -13.3%. Consider `CCCS(=O)(=O)N1CCC2(CCCN(c3ncc(F)cn3)C2)C1` (centres undefined), for which the cytotoxicity at 70.5 h was -6.01%. Consider `c1coc(CN2CCc3onc(Cn4ccnc4)c3C2)c1`, for which the cytotoxicity at 70.5 h was -2.36%. As to `Cc1nc(N2CCCC2)nc2c1CN(C(=O)c1ccco1)CC2`, the cytotoxicity at 70.5 h is -4.28%.

In the case of `Fc1cccc(N2CCc3ncnc(C4CC4)c3CC2)c1`, the cytotoxicity at 70.5 h is -4.85%. As for `Fc1cccc(N2CCc3ncnc(N4CCOCC4)c3CC2)c1`, the cytotoxicity at 70.5 h was -6.22%. Regarding `CN(C)c1ncnc2c1CCN(c1cccc(F)c1)CC2`, the cytotoxicity at 70.5 h is -3.26%. Take `O=C(O)c1nnn(Cc2ccc(F)cc2)c1-c1cccnc1`: the cytotoxicity at 70.5 h was -10.1%. With `Cc1ccc(Cl)cc1NC(=O)Cn1cc(C(=O)O)ccc1=O`, the cytotoxicity at 70.5 h worked out at 4.77%. In the case of `Cc1c(Cl)cccc1NC(=O)Cn1cc(C(=O)O)ccc1=O`, the cytotoxicity at 70.5 h is -10.5%. For `COc1cc(C2C3=C(COC3=O)Nc3[nH]nc(C)c32)cc(Br)c1O` (centres undefined), the cytotoxicity at 70.5 h was determined as 2.06%. `O=c1c2cnc(N3CCOCC3)nc2ccn1-c1ccccc1`: the cytotoxicity at 70.5 h is -7.35%. Turning to `COc1cc(C2C3=C(COC3=O)Nc3[nH]nc(C)c32)cc2c1OCO2` (centres undefined), the cytotoxicity at 70.5 h is 9.37%.

Regarding `COc1ccc(C2SCC(=O)Nc3ccsc32)cc1OC` (centres undefined), the cytotoxicity at 70.5 h is -11.5%. `COc1cc(CC(O)CC#N)c(OC)c2c1OCO2` (centres undefined): the cytotoxicity at 70.5 h is -9.38%. On to `CC(C)c1cc2c(O)nc(CSCC(=O)NCc3ccccn3)nc2s1`, for which the cytotoxicity at 70.5 h is -5.56%. With `O=C(NC1CC1)c1cc2c(nc1O)CC(c1cccs1)CC2=O` (centres undefined), the cytotoxicity at 70.5 h is -11.9%. Regarding `CCOC(=O)N1CCN(c2nc(N3CCCC3)c3ccccc3n2)CC1`, the cytotoxicity at 70.5 h was -6.36%. Consider `COc1cccc(-n2ccc3nc(N4CCCC4)ncc3c2=O)c1`, for which the cytotoxicity at 70.5 h was -4.05%. Consider `Cc1ccc(-n2ccc3nc(N4CCCC4)ncc3c2=O)cc1C`, for which the cytotoxicity at 70.5 h was 9.54%.

On to `CC(C)CCN1N=C(C(=O)N2CCCCCC2)S(=O)(=O)c2ccccc21`, for which the cytotoxicity at 70.5 h came to 21.7%. Regarding `CSc1nc2cc(C)n(CC(=O)Nc3nccs3)c2c(=O)n1CC(C)C`, the cytotoxicity at 70.5 h was -6.26%. Take `COCCNC(=O)Cn1c(C)cc2nc(SC)n(CC(C)C)c(=O)c21`: the cytotoxicity at 70.5 h was determined as 2.11%. Take `CCOC(=O)CSc1ccc(-c2nc(CC)no2)cn1`: the cytotoxicity at 70.5 h is -2.21%. Consider `O=c1[nH]c2nc(NCC3CCCO3)ncc2c(=O)n1-c1cccc(F)c1` (centres undefined), for which the cytotoxicity at 70.5 h worked out at 4.03%.

In the case of `O=c1[nH]c2nc(NC3CC3)ncc2c(=O)n1-c1ccc(F)cc1`, the cytotoxicity at 70.5 h is 0.679%. With `O=c1[nH]nc2nc(N3CCCC3)ccn12`, the cytotoxicity at 70.5 h was 5.61%. On to `COc1cc(Cl)c(C)cc1-n1nnc(C(=O)O)c1C`, for which the cytotoxicity at 70.5 h was -2%.

Regarding `COc1ccccc1OCC(=O)n1nc(C)c(C)c1C`, the cytotoxicity at 70.5 h is 6.31%.

With `O=C1COc2ccc(S(=O)(=O)N3CCOCC3)c3c2N1CCC3`, the cytotoxicity at 70.5 h was determined as 35.1%. The figure for `O=C(O)c1ccc2c(CN3CCCC3)c[nH]c2c1` is 5.69%; for `O=C(O)c1ccc2c(CN3CCOCC3)c[nH]c2c1` it is 32.5%. Take `CC(C)n1[nH]c(=O)c2c1NC(=O)CSC2C1CCCCC1` (centres undefined): the cytotoxicity at 70.5 h was found to be 9.25%. The figure for `COC(=O)C(CCSC)NC(=O)Cc1c(C)nn(-c2ccccc2)c1C` (centres undefined) is 1.93%; for `Cc1sc(CN)nc1-c1ccc(Cl)cc1Cl` it is 5.42%; for `CC(=O)Nc1nc(-c2ccc(F)cc2)c[nH]1` it is 36.5%. As to `CC(=O)Nc1ncc(-c2ccc(C)cc2)[nH]1`, the cytotoxicity at 70.5 h came to 4.65%. The figure for `Oc1nnc(-c2cccs2)c2sc(N3CCCC3)nc12` is -6.61%. As for `O=c1[nH]c2nc(N3CCCCCC3)ncc2c(=O)n1-c1cccc(F)c1`, the cytotoxicity at 70.5 h was -0.0138%. `NC(=O)C1CCN(c2nc3nccc(-c4ccncc4)c3c(=O)[nH]2)CC1`: the cytotoxicity at 70.5 h was -1.26%.

In the case of `COc1cc(C2SCC(=O)Nc3n[nH]cc32)cc(OC)c1O` (centres undefined), the cytotoxicity at 70.5 h was -19.7%.

Take `CC(C)CCNC(=O)c1c(-n2cnnn2)sc2c1CCCC2`: the cytotoxicity at 70.5 h is -0.216%. As for `O=C(Nc1cccnc1)c1nn(C2CCS(=O)(=O)C2)c2c1CCCC2` (centres undefined), the cytotoxicity at 70.5 h is -23.7%.

`CNc1nc2c(s1)C(c1cc(Cl)ccc1F)CC(=O)N2` (centres undefined): the cytotoxicity at 70.5 h is 57.6%. In the case of `O=C(Nc1ccccc1F)c1nn(C2CCS(=O)(=O)C2)c2c1CCCC2` (centres undefined), the cytotoxicity at 70.5 h was -7.2%. As to `O=C(c1ccc(Cl)cc1-n1cnnn1)N1CCC2(CC1)OCCO2`, the cytotoxicity at 70.5 h was -0.151%. The figure for `COc1cc(C2SCC(=O)Nc3[nH]ncc32)cc(OC)c1OC` (centres undefined) is -5.35%; for `O=C1CC(c2ccccc2C(F)(F)F)c2sc(N3CCOCC3)nc2N1` (centres undefined) it is -13.5%. The value for `COc1ccc(C2CC(=O)Nc3nc(N4CCOCC4)sc32)c(OC)c1` (centres undefined) was -21.3%; that for `CNc1nc2c(s1)C(c1ccccc1Cl)CC(=O)N2` (centres undefined) was -21.9%; that for `NC(=O)c1ccc2c(c1)nc1n2CCN(Cc2cccnc2)C1` was -1.68%. On to `CC(C)CNC(=O)c1ccc2c(c1)nc1n2CCN(Cc2ccco2)C1`, for which the cytotoxicity at 70.5 h is -0.527%. Turning to `CCOC(=O)Cc1cs/c(=N/C(=O)COc2cnc(C)cc2O)[nH]1`, the cytotoxicity at 70.5 h came out at 5.42%. As to `Cc1cc(O)c(OCC(=O)Nc2nccs2)cn1`, the cytotoxicity at 70.5 h is -21.7%. The value for `COCCNC(=O)c1c(-n2cnnn2)sc2c1CCCC2` was -4.74%; that for `Oc1nc(N2CCOCC2)nc2nccc(-c3ccccn3)c12` was -4.58%; that for `CNc1nc2c(s1)C(c1ccc(F)cc1Cl)CC(=O)N2` (centres undefined) was 2.52%.

`CCc1c(C(=O)O)nnn1-c1cccc(C)c1C`: the cytotoxicity at 70.5 h was -7.95%.

As to `Cc1ccc(-n2nnc(C(=O)O)c2C)c(C)c1`, the cytotoxicity at 70.5 h turned out to be 0.943%. The figure for `Cc1cc(=O)n(CC(=O)NCC2CCCO2)c(-c2ccc(F)cc2)n1` (centres undefined) is 13%; for `Cc1cc(C)n(Cc2cccc(C(=O)NCCN3CCOCC3)c2)n1` it is -6.51%; for `Cc1nn(C)c2c(NCc3cccnc3)nc(C3CC3)nc12` it is -3.52%. For the molecule `Cc1nc(C)c(C(=O)N2CCc3nnc(C4CCCCN4C)n3CC2)o1` (centres undefined), the cytotoxicity at 70.5 h was 0.605%. On to `CCn1nc(C)c(CN2CCC(c3ccn[nH]3)C2)c1C` (centres undefined), for which the cytotoxicity at 70.5 h was determined as 4.91%.

Regarding `O=C1CCOC[C@]2(CN(Cc3ccccc3)C[C@H]2c2cccc(F)c2)N1`, the cytotoxicity at 70.5 h was -2.96%. Take `CN(C)C(=O)N1CCC2(CC1)CNc1ccc(F)cc12`: the cytotoxicity at 70.5 h is -2.37%.

Turning to `O=C(C1CC1)N1CCC2(CC1)CNc1ccc(F)cc12`, the cytotoxicity at 70.5 h is -10.9%. The figure for `CCOC(=O)N1CCN(c2nc(N)c3ccccc3n2)CC1` is -7.74%; for `CCCNCc1ccc(OCc2ccc3c(c2)OCCO3)cc1` it is 33.3%; for `CN(C)Cc1cc(C2CCN(C(=O)C3CCCNC3)CC2)nn1C` (centres undefined) it is -5.29%. `CCn1cc(NC(=O)CN2CCC(Oc3ccc(F)cc3)CC2)c(C)n1`: the cytotoxicity at 70.5 h came out at 5.01%. As to `Cc1cc(NCCO)nc(N2CCC(Cc3ccccc3)CC2)c1C#N`, the cytotoxicity at 70.5 h amounted to 0.669%. The value for `c1cnc(N2CCOCC3(CN(Cc4cc[nH]n4)CCO3)C2)nc1` (centres undefined) was 7.31%; that for `CCC1=N[C@@]2(CC[C@@H]3CN(Cc4ccccc4F)C[C@@H]32)C(=O)N1` was -6.13%; that for `CC(C)NC1CCc2c(ccc(=O)n2CCN2CCCC2=O)C1` (centres undefined) was -4.58%. Consider `O=C(CO)N1CCC(F)(F)C2(CCN(c3ccccc3)C2)C1` (centres undefined), for which the cytotoxicity at 70.5 h was 1.4%.

In the case of `CN1C[C@@H]2CN(C(=O)NCc3cccc(F)c3)CCC[C@]2(C(=O)O)C1`, the cytotoxicity at 70.5 h came to 8.66%. As to `Cc1cnc(N2C[C@H]3CCN(CC4CC4)C[C@H]3C2)nc1`, the cytotoxicity at 70.5 h is 9.39%. The figure for `Cn1cnc2c1C(C(=O)N1CCCC1)N(CC1CC1)CC2` (centres undefined) is -9.9%; for `CC(=O)N1CCc2ncn(C)c2C1C(=O)N1CCCC1` (centres undefined) it is -6.96%; for `CC(C)n1cnc2c1C(C(=O)N1CCCC1)N(CC1CC1)CC2` (centres undefined) it is -1.74%.

As for `COCCC(=O)N1CCN(CC(C)C)c2nc(C)ccc2C1`, the cytotoxicity at 70.5 h was -4%. With `c1ccn(Cc2noc3c2CN(Cc2ccsc2)CC3)c1`, the cytotoxicity at 70.5 h was -6.24%. With `c1coc(CN2CCc3onc(Cn4cccc4)c3C2)c1`, the cytotoxicity at 70.5 h is -6.52%. For the molecule `O=C(O)CN1CCC(F)(F)C2(CCN(c3ccccc3)C2)C1` (centres undefined), the cytotoxicity at 70.5 h is -5.61%. The value for `CCOCC1c2c(ncn2C(C)C)CCN1C(C)C` (centres undefined) was -7.26%; that for `CC(=O)N1CCn2c(-c3ccccc3)cnc2C12CCNCC2` was -6.82%. As to `Cc1ccc2c(n1)N(CC(C)C)CCN(C(=O)Cc1ccccn1)C2`, the cytotoxicity at 70.5 h is -4.9%. Turning to `CN(C)C[C@@H]1C[C@@H]2CN(c3ncc(F)cn3)CC[C@@H]2N1C`, the cytotoxicity at 70.5 h is -3.26%. `Cc1cccc(CN2C[C@@H]3CN(Cc4ccoc4)CCO[C@@H]3C2)n1`: the cytotoxicity at 70.5 h was -1.63%.
